According to US6316405A, “Cyclosporin a conjugates and uses therefor” (Wisconsin Alumni Research Foundation, priority 1999, dated 2001):
“Also recorded” adds a separate entry of the source. Peptide text beside a SMILES is read from it. * marks the point of attachment. X1 = CCC(C)(C)C(=O)C(=O)N1CCCC[C@H]1C(=O)O[C@H](CCc1ccccc1)c1cccc(OCC(=O)*)c1; NHTrityl = c1ccc(C(N*)(c2ccccc2)c2ccccc2)cc1; Acetyl(pyridin-2-yl) = O=C(Cc1ccccn1)*; Fmoc = O=C(OCC1c2ccccc2-c2ccccc21)*; ClZ = O=C(OCc1ccccc1Cl)*; Alloc = C=CCOC(=O)*

Experiments:
[1] = Solubility of Aβ-binding peptides in organic solvents; conditions: for solubility of the peptide (in words): running text, organic solvents
Method: After cleavage from the resin with TFA, the solubles of the crude peptides were determined (ca. 3-5 mg/0.5-1.0 ml) in various solvents (LiCl/DMF, DMF or NMP, and/or mixtures with DCM/MeOH/CH3 CN/dioxane).
^a conditions: 3-5 mg peptide/0.5-1.0 mL.
^b conditions tested; NMP, DMF, DMF/LiCl, THF, CH3 CN, DCM, MeOH,

[2] = system: nerve regeneration; conditions: NGF must be present; Lyons et al. 1994, Steine et al. 1997; cited from earlier work
[3] = system: cyclophilin (Cyp); conditions: cited from earlier work
[4] = Solubility of conjugates in organic solvents; conditions: running text
[5] = biological target: Aβ peptide (Homo sapiens, UniProt P05067); conditions: Tjernberg et al. 1996; cited from earlier work
[6] = Table 11.1, ca. 3-5 mg/0.5-1.0 ml
[7] = Table 11.1, crude peptides for CsA analog coupling, ca. 3-5 mg/0.5-1.0 ml
[8] = Table 11.3, 3-5 mg peptide/0.5-1.0 mL, all free lysines are TFA salts

Sequence of Aβ peptide (P05067 672-713 limits assumed): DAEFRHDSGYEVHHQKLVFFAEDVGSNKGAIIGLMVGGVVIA

With CC(=O)N[C@@H](CCC(=O)NC(c1ccccc1)(c1ccccc1)c1ccccc1)C(=O)N[C@@H](CCCCNC(=O)OCc1ccccc1Cl)C(=O)N[C@@H](CC(C)C)C(=O)N[C@H](C(=O)N[C@@H](Cc1ccccc1)C(=O)N[C@@H](Cc1ccccc1)C(=O)O)C(C)C [11.24, Ac-Q(Trt)K(2Cl-Cbz)LVFF-OH] (Ac-E(NHTrityl)K(ClZ)LVFF-OH) the “Solubility grade in LiCl/DMF or LiCl/NMP” value [1, 6] was “medium” and the “solubility of the peptide (in words)” value [1] was “no improvement in solubility is observed”.
In the case of C=CC[C@@H]1/C=C(\C)C[C@H](C)C[C@H](OC)[C@H]2O[C@@](O)(C(=O)C(=O)N3CCCC[C@H]3C(=O)O[C@H](/C(C)=C/[C@@H]3CC[C@@H](O)[C@H](OC)C3)[C@H](C)[C@@H](O)CC1=O)[C@H](C)C[C@@H]2OC [FK506], the “significant neurotrophic activity at concentrations as low as” value [2] is listed as 1 pM and the “binding to cyclophilin (in words)” value [3] is listed as “does not bind to Cyp”.
With CC(C)C[C@H](NC(=O)[C@H](CCCCNC(=O)OCc1ccccc1Cl)NC(=O)[C@H](CCC(=O)O)NC(=O)OCC1c2ccccc2-c2ccccc21)C(=O)N[C@H](C(=O)N[C@@H](Cc1ccccc1)C(=O)N[C@@H](Cc1ccccc1)C(N)=O)C(C)C [11.28, Fmoc-EK(2Cl-Cbz)LVFF-NH2] (Fmoc-EK(ClZ)LVFF-NH2) the “Solubility (solvent in which the peptide is soluble)” value [1, 7] was “DMF” and the “solubility of the peptide (in words)” value [1] was “soluble in neat DMF without added LiCl”.
In the case of C=CCOC(=O)NCCCC[C@H](NC(=O)[C@H](CCCCN)NC(=O)OCC1c2ccccc2-c2ccccc21)C(=O)N[C@@H](CC(C)C)C(=O)N[C@H](C(=O)N[C@@H](Cc1ccccc1)C(=O)N[C@@H](Cc1ccccc1)C(N)=O)C(C)C [11.35, Fmoc-KK(Alloc)LVFF-NH2] (Fmoc-KK(Alloc)LVFF-NH2), the “Solubility grade in LiCl/DMF or LiCl/NMP” value [1, 8] was “medium” and the “solubility of the peptide (in words)” value [1] was “insoluble in DMF/LiCl”.
In the case of CC(C)C[C@H](NC(=O)[C@H](CCCCN)NC(=O)OCC1c2ccccc2-c2ccccc21)C(=O)N[C@H](C(=O)N[C@@H](Cc1ccccc1)C(=O)N[C@@H](Cc1ccccc1)C(N)=O)C(C)C [11.37, Fmoc-KLVFF-NH2], the “Solubility (solvent in which the peptide is soluble)” value [1, 8] was “DMF” and the “solubility of the peptide (in words)” value [1] was “completely soluble in DMF”.
For CC(=O)N[C@@H](CCC(N)=O)C(=O)N[C@@H](CCCCNC(=O)OCc1ccccc1Cl)C(=O)N[C@@H](CC(C)C)C(=O)N[C@H](C(=O)N[C@@H](Cc1ccccc1)C(=O)N[C@@H](Cc1ccccc1)C(=O)O)C(C)C [11.23, Ac-QK(2Cl-Cbz)LVFF-OH], the “Solubility grade in LiCl/DMF or LiCl/NMP” value [1, 6] was “medium” and the “solubility of the peptide (in words)” value [1] was “poorly soluble in all solvents including LiCl/DMF; also recorded: sparingly soluble in LiCl/DMF”.
With C=CCOC(=O)NCCCC[C@H](NC(=O)Cc1ccccn1)C(=O)N[C@@H](CC(C)C)C(=O)N[C@H](C(=O)N[C@@H](Cc1ccccc1)C(=O)N[C@@H](Cc1ccccc1)C(=O)N[C@@H](CCCCNC(=O)COc1cccc([C@@H](CCc2ccccc2)OC(=O)[C@@H]2CCCCN2C(=O)C(=O)C(C)(C)CC)c1)C(N)=O)C(C)C [10.9, Pyridyl acetyl-K(alloc)LVFFK-NH2 /FKBP inhibitor conjugate] ({Acetyl(pyridin-2-yl)}-K(Alloc)LVFFK(X1)-NH2) the “solubility of the conjugate (in words)” value [4] was “methanol soluble salt”.
In the case of CC(=O)N[C@@H](CCCCNC(=O)OCc1ccccc1Cl)C(=O)N[C@@H](CC(C)C)C(=O)N[C@H](C(=O)N[C@@H](Cc1ccccc1)C(=O)N[C@@H](Cc1ccccc1)C(=O)O)C(C)C [11.27, Ac-K(2Cl-Cbz)LVFF-OH], the “Solubility (solvent in which the peptide is soluble)” value [1, 7] was “DMF”, the “solubility of the peptide (in words)” value [1] was “soluble in DMF but requires a longer vortexing period” and the “solubility of the peptide (in words)” value ([1]; listed as Ac-K(2Cl-Cbz)LVFF-OH) was “increased solubility in DMF”.
With CC(C)C[C@H](NC(=O)[C@H](CCCCNC(=O)OCc1ccccc1Cl)NC(=O)OCC1c2ccccc2-c2ccccc21)C(=O)N[C@H](C(=O)N[C@@H](Cc1ccccc1)C(=O)N[C@@H](Cc1ccccc1)C(=O)O)C(C)C [11.26, Fmoc-K(2Cl-Cbz)LVFF-OH] the “Solubility (solvent in which the peptide is soluble)” value [1, 7] was “DMF” and the “solubility of the peptide (in words)” value [1] was “completely soluble in DMF after a short period of vortexing”.
For C=CCOC(=O)NCCCC[C@H](NC(=O)OCC1c2ccccc2-c2ccccc21)C(=O)N[C@@H](CC(C)C)C(=O)N[C@H](C(=O)N[C@@H](Cc1ccccc1)C(=O)N[C@@H](Cc1ccccc1)C(=O)N[C@@H](CCCCNC(=O)COc1cccc([C@@H](CCc2ccccc2)OC(=O)[C@@H]2CCCCN2C(=O)C(=O)C(C)(C)CC)c1)C(N)=O)C(C)C [11.41] (Fmoc-K(Alloc)LVFFK(X1)-NH2), the “solubility of the conjugate (in words)” value [4] was “not completely soluble in DCM, DCM/MeOH, or MeOH”.
In the case of C=CCOC(=O)NCCCC[C@H](NC(=O)Cc1ccccn1)C(=O)N[C@@H](CC(C)C)C(=O)N[C@H](C(=O)N[C@@H](Cc1ccccc1)C(=O)N[C@@H](Cc1ccccc1)C(=O)N[C@@H](CCCCN)C(N)=O)C(C)C [11.40, Pyiidylacetate-K(Alloc)LVFFK-NH2] ({Acetyl(pyridin-2-yl)}-K(Alloc)LVFFK-NH2), the “Solubility (solvent in which the peptide is soluble)” value [1, 8] was “DMF” and the “solubility of the peptide (in words)” value [1] was “completely soluble in DMF as the double TFA salts”.
For [MeLeu(3-OH)^1, MeAla^4,6 ]-CsA, the “binding to cyclophilin (in words)” value [3] is given as “retains tight-binding to cyclophilin”.
In the case of C=CCOC(=O)NCCCC[C@H](NC(=O)OCC1c2ccccc2-c2ccccc21)C(=O)N[C@@H](CC(C)C)C(=O)N[C@H](C(=O)N[C@@H](Cc1ccccc1)C(=O)N[C@@H](Cc1ccccc1)C(=O)N[C@@H](CCCCN)C(N)=O)C(C)C [11.36, Fmoc-K(Alloc)LVFFK-NH2] (Fmoc-K(Alloc)LVFFK-NH2), the “Solubility (solvent in which the peptide is soluble)” value [1, 8] was “LiCl/DMF” and the “solubility of the peptide (in words)” value [1] was “completely soluble in LiCl/DMF”.
In the case of CC(C)C[C@H](NC(=O)[C@H](CCCCN)NC(=O)Cc1ccccn1)C(=O)N[C@H](C(=O)N[C@@H](Cc1ccccc1)C(=O)N[C@@H](Cc1ccccc1)C(N)=O)C(C)C [11.39, Pyridylacetate-KLVFF-NH2], the “Solubility (solvent in which the peptide is soluble)” value [1, 8] was “DMF” and the “solubility of the peptide (in words)” value [1] was “completely soluble in DMF as the double TFA salts”.
For Ac-QKLVFF-NH2, the “fibril formation (in words)” value [5] is given as “binds to and inhibits fibril formation”.
For CC(C)C[C@H](NC(=O)[C@H](CCCCNC(=O)OCc1ccccc1Cl)NC(=O)[C@H](CCC(=O)NC(c1ccccc1)(c1ccccc1)c1ccccc1)NC(=O)OCC1c2ccccc2-c2ccccc21)C(=O)N[C@H](C(=O)N[C@@H](Cc1ccccc1)C(=O)N[C@@H](Cc1ccccc1)C(=O)O)C(C)C [11.25, Fmoc-Q(Trt)K(2Cl-Cbz)LVFF-OH] (Fmoc-E(NHTrityl)K(ClZ)LVFF-OH), the “Solubility (solvent in which the peptide is soluble)” value [1, 7] was “Hot NMP” and the “solubility of the peptide (in words)” value [1] was “soluble in only hot NMP and remained cloudy in LiCl/DMF”.
In the case of CC(=O)N[C@@H](CCC(=O)O)C(=O)N[C@@H](CCCCNC(=O)OCc1ccccc1Cl)C(=O)N[C@@H](CC(C)C)C(=O)N[C@H](C(=O)N[C@@H](Cc1ccccc1)C(=O)N[C@@H](Cc1ccccc1)C(N)=O)C(C)C [11.29, Ac-EK(2Cl-Cbz)LVFF-NH2] (Ac-EK(ClZ)LVFF-NH2), the “Solubility (solvent in which the peptide is soluble)” value [1, 7] was “LiCl/DMF”, the “solubility of the peptide (in words)” value [1] was “completely soluble only in LiCl/DMF” and the “solubility of the peptide (in words)” value ([1]; listed as Ac-EK(2Cl-Cbz)LVFF-NH2) was “increased solubility in DMF”.
